Data taken from US5677331A, “Antimalarial compositions” (priority 1990, dated 1997).

Columns and labels:
P. Berghei K173 N-strain = test: blood schizontocidal action, 4-day test according to Peters; type: in vivo, P. Berghei in mice; conditions: component alone, oral, mice, mean of three experiments
Method: The synergism between the components benflumetol and artemether is determined according to the method of Peters: Am. Trop. Med. Parasitol Vol. 62, pg. 488-492 (1968).
Blood schizintocidal action of artemether (A) and benflumetol (B) admimistered orally in varying proportions to mice infected with P. Berghei K173 N-strain in "4-day test" according to Peters (Mean values of three experiments)

protozoa = test: rate of killing protozoa in vivo in mice; conditions: 20× ED90 intragastrically
Method: The rate of killing protozoa was determined in-vivo. When the protozoa concentration in the blood of mice increased to high density, a multiple dose equivalent, i.e. 20× ED90 was given intragastrically. The rate of decrease of protozoae in blood was observed uninterruptedly after administration.

[1] = system: pernicious malaria protozoae; test: clinical therapeutic effect of individual components compared to combination; type: in vivo, patients (human); conditions: oral, 3 days and 4 doses; for time for disappearance of protozoae: average; for rate of decrease in protozoae at 24 hours: 20 patients per group
Source text: Determination of therapeutic effect of individual components as compared to synergistic combination: Two groups of patients were selected for oral administration and the 3 days and 4 doses treatment scheme. There were 20 patients with pernicious malaria in each group. The therapeutic effect of the combination and artemether and benflumetol singly were compared separately. The doses of both drugs in individual administration were about the same as in the complex prescription. The parameters determined were: 1) the rate for decrease of protozoa at 24 h post administrationem; 2) average time for disappearance of protozoae; 3) average time for fever subsidence; and 4) cure rate at the 28th day.

[2] = toxicity and tolerability of benflumetol (general statement)
Source text: The dose of the active component benflumetol (I) as contained in the pharmaceutical composition may vary within wide limits and depends on the condition of the patient and the time period elapsed after the outbreak of the disease.

[3] = system: chloroquine-resistant strains of Plasmodium falciparum; conditions: in vivo; cited from earlier work

SMILES	Effective dose of first component ED50 (P. Berghei K173 N-strain)	Effective dose of first component ED90 (P. Berghei K173 N-strain)	killing of protozoae (protozoa; before their number increased again)	time for disappearance of protozoae [1]	28-day cure rate [1]	average time for fever subsidence [1]	rate of decrease in protozoae at 24 hours [1]	timespan required for 90% decrease of the protozoae (protozoa)	tolerability [2]	toxicity [2]	activity against chloroquine-resistant strains of Plasmodium falciparum in man [3]
CO[C@H]1O[C@@H]2O[C@@]3(C)CC[C@H]4[C@H](C)CC[C@@H]([C@H]1C)[C@@]24OO3 [artemether]	2.00 mg/kg/day	5.30 mg/kg/day	could not kill protozoae by more than 90% before their number increased again	38.7 h	45%	19.7 h	95.1%	–	–	–	–
CCCCN(CCCC)CC(O)c1cc(Cl)cc2c1-c1ccc(Cl)cc1C2=Cc1ccc(Cl)cc1 (centres unmarked) [benflumetol]	1.30 mg/kg/day	2.70 mg/kg/day	–	68.4 h	65%	40 h	74.5%	64.3 h	high tolerability	low toxicity	–
C[C@@H]1CC[C@H]2[C@@H](C)C(=O)O[C@@H]3O[C@@]4(C)CC[C@@H]1[C@]32OO4 [Artemisinine]	–	–	–	–	–	–	–	–	–	–	active against chloroquine-resistant strains of Plasmodium falciparum in man
